Measurements reported in ChEMBL document CHEMBL1201862, “PubChem BioAssay data set” (2004).
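All cell lines were grown in 96-well plates and treated with compound for 48 hours. The concentration for 50% growth inhibition is given as GI50.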 Active and inactive are the calls of the source. Rule as the data show it: active = GI50 up to about 1.1 µM and inactive = higher.

What was measured:
Test in all cases: NCI anticancer screen, dose series, 48 h
RPMI-8226 = test system: RPMI-8226
SK-MEL-2 = test system: SK-MEL-2
SNB-19 = test system: SNB-19
HOP-92 = test system: HOP-92
SN12C = test system: SN12C
UACC-257 = test system: UACC-257
HCC 2998 = test system: HCC 2998
NCI-H226 = test system: NCI-H226
Malme-3M = test system: Malme-3M
MOLT-4 = test system: MOLT-4
COLO 205 = test system: COLO 205
SF-268 = test system: SF-268
786-0 = test system: 786-0
OVCAR-5 = test system: OVCAR-5
U-251 = test system: U-251
NCI-H522 = test system: NCI-H522
M14 = test system: M14
CAKI-1 = test system: CAKI-1

Measured: GI50

Cc1cn(C2CC(n3cncn3)C(C(C)O)O2)c(=O)[nH]c1=O (centres undefined)
inactive: RPMI-8226 > 100 µM | SK-MEL-2 > 100 µM | SNB-19 > 100 µM | HOP-92 > 100 µM | SN12C > 100 µM | UACC-257 > 100 µM | HCC 2998 > 100 µM | NCI-H226 > 100 µM | Malme-3M > 100 µM | MOLT-4 > 100 µM | COLO 205 > 100 µM | SF-268 > 100 µM | 786-0 > 100 µM | OVCAR-5 > 100 µM | U-251 > 100 µM | NCI-H522 > 100 µM | M14 > 100 µM

CC(=O)Oc1cc2c(=O)oc3c(OC(C)=O)c(OC(C)=O)c(OC(C)=O)c4c(=O)oc(c1OC(C)=O)c2c34
inactive: RPMI-8226 73.8 µM | SK-MEL-2 28.8 µM | SNB-19 73.8 µM | HOP-92 25.2 µM | SN12C 29 µM | UACC-257 45.5 µM | HCC 2998 > 100 µM | NCI-H226 43.9 µM | Malme-3M 29.4 µM | MOLT-4 58.7 µM | COLO 205 59 µM | CAKI-1 > 100 µM | SF-268 48.4 µM | 786-0 38 µM | OVCAR-5 94.6 µM | U-251 36.6 µM | NCI-H522 37.4 µM | M14 36.6 µM

COC1=CC(=O)C2C(C1=O)C(c1ccc(Cl)cc1)[C@@H]2C (some centres undefined)
inactive: RPMI-8226 39.7 µM | SK-MEL-2 37.4 µM | SNB-19 7.05 µM | HOP-92 24.5 µM | UACC-257 20.6 µM | HCC 2998 45.5 µM | NCI-H226 22.1 µM | Malme-3M 23 µM | MOLT-4 31.6 µM | COLO 205 35 µM | CAKI-1 37.8 µM | SF-268 33 µM | 786-0 24.4 µM | OVCAR-5 30.3 µM | U-251 25.2 µM | NCI-H522 15.2 µM | M14 25.7 µM

COc1ccc([C@H]2CC(=O)N3CCCC3N2)cc1 (some centres undefined)
inactive: RPMI-8226 > 100 µM | SK-MEL-2 > 100 µM | SNB-19 > 100 µM | HOP-92 > 100 µM | SN12C > 100 µM | UACC-257 > 100 µM | HCC 2998 > 100 µM | NCI-H226 > 100 µM | Malme-3M > 100 µM | MOLT-4 > 100 µM | COLO 205 > 100 µM | CAKI-1 > 100 µM | SF-268 > 100 µM | 786-0 > 100 µM | OVCAR-5 > 100 µM | U-251 > 100 µM | NCI-H522 > 100 µM | M14 > 100 µM

COc1ccc(/C=C\c2cc(OC)c(OC(C)=O)c(OC)c2)cc1
inactive: RPMI-8226 12.8 µM | SK-MEL-2 7.53 µM | SNB-19 7.24 µM | HOP-92 19.1 µM | SN12C 7.21 µM | UACC-257 17.3 µM | HCC 2998 10.7 µM | NCI-H226 27.4 µM | Malme-3M 19 µM | MOLT-4 6.43 µM | COLO 205 34.4 µM | CAKI-1 25.1 µM | SF-268 10.5 µM | 786-0 14.9 µM | OVCAR-5 28.7 µM | U-251 4.21 µM | NCI-H522 15.5 µM | M14 18.2 µM

O=C(O)CCNS(=O)(=O)c1ccc([N+](=O)[O-])cc1
inactive: RPMI-8226 > 100 µM | SK-MEL-2 > 100 µM | SNB-19 > 100 µM | HOP-92 > 100 µM | SN12C > 100 µM | UACC-257 > 100 µM | HCC 2998 > 100 µM | NCI-H226 > 100 µM | Malme-3M > 100 µM | MOLT-4 > 100 µM | COLO 205 > 100 µM | CAKI-1 > 100 µM | SF-268 > 100 µM | 786-0 > 100 µM | OVCAR-5 > 100 µM | U-251 > 100 µM | NCI-H522 > 100 µM | M14 > 100 µM

CC1=C(C#N)C(N)=C2C(C)=C(C#N)C(N)=C12
inactive: RPMI-8226 > 100 µM | SNB-19 > 100 µM | HOP-92 > 100 µM | SN12C > 100 µM | UACC-257 > 100 µM | HCC 2998 > 100 µM | NCI-H226 > 100 µM | Malme-3M > 100 µM | MOLT-4 > 100 µM | COLO 205 > 100 µM | CAKI-1 > 100 µM | SF-268 > 100 µM | 786-0 > 100 µM | OVCAR-5 > 100 µM | U-251 > 100 µM | NCI-H522 > 100 µM | M14 > 100 µM

CC(C)(C)NN=C1C(C)(C)C(=NNC(C)(C)C)C1(C)C
inactive: RPMI-8226 > 100 µM | SNB-19 > 100 µM | HOP-92 > 100 µM | SN12C > 100 µM | UACC-257 > 100 µM | HCC 2998 > 100 µM | NCI-H226 > 100 µM | Malme-3M > 100 µM | MOLT-4 > 100 µM | COLO 205 > 100 µM | CAKI-1 > 100 µM | SF-268 > 100 µM | 786-0 > 100 µM | OVCAR-5 > 100 µM | U-251 > 100 µM | NCI-H522 > 100 µM | M14 > 100 µM

O=C(c1ccccc1)N1CCc2c([nH]c3ccccc23)C1
inactive: RPMI-8226 23.5 µM | SK-MEL-2 27.1 µM | SNB-19 59.7 µM | HOP-92 48.6 µM | SN12C 34 µM | UACC-257 28.7 µM | HCC 2998 94.4 µM | NCI-H226 51.8 µM | Malme-3M 35.8 µM | MOLT-4 24.5 µM | COLO 205 19.2 µM | CAKI-1 28.4 µM | 786-0 54.7 µM | OVCAR-5 > 100 µM | U-251 16.4 µM | NCI-H522 22 µM | M14 34 µM

C=C(C)C1CCC2(C)CC1c1c(c(C)cc3c1[nH]c1ccccc13)O2 (centres undefined)
inactive: RPMI-8226 > 25 µM | SK-MEL-2 > 25 µM | SNB-19 > 25 µM | HOP-92 > 25 µM | SN12C > 25 µM | HCC 2998 > 25 µM | NCI-H226 16.7 µM | Malme-3M > 25 µM | MOLT-4 17.5 µM | COLO 205 > 25 µM | SF-268 > 25 µM | 786-0 > 25 µM | OVCAR-5 > 25 µM | U-251 > 25 µM | NCI-H522 15 µM | M14 > 25 µM

COC(=O)c1cc(Br)c(Br)n1C
inactive: SNB-19 > 100 µM | HOP-92 > 100 µM | SN12C > 100 µM | UACC-257 > 100 µM | HCC 2998 > 100 µM | NCI-H226 > 100 µM | Malme-3M > 100 µM | MOLT-4 70.3 µM | COLO 205 > 100 µM | CAKI-1 > 100 µM | SF-268 > 100 µM | 786-0 > 100 µM | OVCAR-5 > 100 µM | U-251 > 100 µM | NCI-H522 39.4 µM | M14 > 100 µM
